According to patent US20070116831A1, “Dental Composition with High-Potency Sweetener” (THE COCA-COLA COMPANY, priority 2005, published 2007):

Assay: Rate of dissolution in H2O at 25° C. of rebaudioside A polymorph and amorphous forms
Type: physicochemical
Details: within 60 minutes
Description: The purification of rebaudioside A by crystallization as described above results in the formation of at least three different polymorphs: Form 1: a rebaudioside A hydrate; Form 2: an anhydrous rebaudioside A; and Form 3: a rebaudioside A solvate. In addition to the at least three polymorph forms of rebaudioside A, the purification of rebaudioside A may result in the formation of an amorphous form of rebaudioside A, Form 4. The aqueous organic solution and temperature of the purification process influence the resulting polymorph and amorphous forms in the substantially pure rebaudioside A composition. FIGS. 1-5 are exemplary powder x-ray diffraction (XRPD) scans of the polymorph and amorphous forms Form 1 (hydrate), Form 2 (anhydrate), Form 3A (methanol solvate), Form 3B (ethanol solvate), and Form 4 (amorphous), respectively.

Rate of dissolution in H2O at 25° C.: Very low (<0.2%/ %/60 minutes
Substance: rebaudioside A [Form 1]
